One assay concerns the target T1, human TRα-LBD (Homo sapiens, UniProt P10827).
T1 sequence (P10827 163-410 isoform P10827-2): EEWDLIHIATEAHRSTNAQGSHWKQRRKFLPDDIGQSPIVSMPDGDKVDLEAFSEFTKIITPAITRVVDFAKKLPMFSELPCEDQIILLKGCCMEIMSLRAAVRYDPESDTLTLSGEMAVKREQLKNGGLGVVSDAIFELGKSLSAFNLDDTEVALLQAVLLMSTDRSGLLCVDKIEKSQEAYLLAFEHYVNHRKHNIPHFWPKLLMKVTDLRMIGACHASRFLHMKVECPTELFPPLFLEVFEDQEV
Description: Competitive binding assay with Fluorescein-labeled T3 probe, human TRα. The note with it: result in words (FIG. 2A).

In another assay the test system is GH3 cells. Description: GH3 cell proliferation assay (anti-TH potency). The format is cell-based, rat. The note with it: for −log RIC20 (relative anti-TH potency): RIC20 (mol/L) is 20% inhibition of proliferation of GH3 cells induced by 0.5 nM T3; for TH disrupting effect determined in GH3 proliferation assay: result in words. Here is the method: The rat pituitary tumor cell line GH3 was cultured for determination of the relative TH disrupting potencies. […] Due to cytotoxicity, the other 3 HO-PBDEs were not tested for anti-TH potencies.

“Also recorded” adds a separate entry of the source.

Take `Oc1c(Oc2ccc(Br)cc2Br)cc(Br)c(Br)c1Br` [2-HO-BDE-123]: the “binding affinity with TRα” value at human TRα-LBD is on record as “greater affinities”. In the assay on GH3 cells, the “−log RIC20 (relative anti-TH potency)” value came to 7.44 and the “TH disrupting effect determined in GH3 proliferation assay” value (from here on “TH disrupting effect determined”) is given as “antagonists of the TR”.
Consider `Oc1c(Oc2ccc(Br)cc2Br)ccc(Br)c1Br` [2′-OH-BDE-66], for which, in the assay on GH3 cells, the “−log RIC20 (relative anti-TH potency)” value turned out to be 7.09.
Same read-out and setting: the figure for `Oc1c(Br)cc(Br)cc1Oc1ccc(Br)cc1Br` [2′-OH-BDE-68] is 7.15.
As to `Oc1c(Br)cc(Br)c(Oc2ccc(Br)cc2Br)c1Br` [3-HO-BDE-100], the “binding affinity with TRα” value on human TRα-LBD is recorded as “greater affinities; also recorded: one of the strongest binding ligands”. Also, the “−log RIC20 (relative anti-TH potency)” value in the assay with GH3 cells amounted to 7.83.
Consider `Oc1c(Br)cc(Oc2ccc(Br)cc2Br)c(Br)c1Br` [4-HO-BDE-90], for which, in the assay on GH3 cells, the “−log RIC20 (relative anti-TH potency)” value stood at 7.59 and the “TH disrupting effect determined” value was “antagonists of the TR”.
As to `Oc1c(Br)c(Br)c(Oc2c(Br)cc(Br)cc2Br)c(Br)c1Br` [4-HO-BDE-188], the “−log RIC20 (relative anti-TH potency)” value with GH3 cells was determined as 8.42.
For the molecule `Oc1cc(Br)c(Oc2ccc(Br)cc2Br)cc1Br` [4′-HO-BDE-49], the “binding affinity with TRα” value at human TRα-LBD is given as “too weak to detect”. In the assay with GH3 cells, the “−log RIC20 (relative anti-TH potency)” value was determined as 7.30.
For the molecule `Oc1cc(Br)c(Oc2cc(Br)c(Br)cc2Br)cc1Br` [4′-HO-BDE-101], in the assay on GH3 cells, the “−log RIC20 (relative anti-TH potency)” value was determined as 8.11.
Same read-out and setting: the figure for `Oc1ccc(Oc2ccc(Br)cc2Br)c(Br)c1` [4′-OH-BDE-17] is 6.51.
The same measure, in the same setting: the same measure for `Oc1c(Br)cc(Br)c(Br)c1Oc1ccc(Br)cc1Br` [6-HO-BDE-90]: 7.76.
`Oc1c(Br)c(Br)c(Br)c(Br)c1Oc1ccc(Br)cc1Br` [6-HO-BDE-137]: the “binding affinity with TRα” value on human TRα-LBD is “greater affinities”. In addition, in the assay on GH3 cells, the “−log RIC20 (relative anti-TH potency)” value was determined as 8.03 and the “TH disrupting effect determined” value is on record as “antagonists of the TR”.
As to `Oc1cc(Br)c(Br)c(Br)c1Oc1cc(Br)c(Br)c(Br)c1` [6-HO-BDE-157], the “−log RIC20 (relative anti-TH potency)” value in the assay with GH3 cells worked out at 8.14.
Regarding `Oc1cccc(Br)c1Oc1ccc(Br)cc1Br` [6′-HO-BDE-17], in the assay with GH3 cells, the “−log RIC20 (relative anti-TH potency)” value was found to be 6.78.
